# Assays:
# Assay in all cases: Test B pre-/postemergence plant response
# Format in all cases: in vivo
# [1] = tested on: ragweed (common ragweed, Ambrosia elatior)
# Excerpt: (§1) Seeds of plant species selected from blackgrass (Alopecurus myosuroides), downy bromegrass (Bromus tectorum), green foxtail (Setaria viridis), Italian ryegrass (Lolium multiflorum), wheat (Triticum aestivum), wild oat (Avena fatua), deadnettle (henbit deadnettle, Lamium amplexicaule), galium (catchweed bedstraw, Galium aparine), bermudagrass (Cynodon dactylon), Surinam grass (Brachiaria decumbens), cocklebur (Xanthium strumarium), corn (Zea mays), large crabgrass (Digitaria sanguinalis), woolly cupgrass (Eriochloa villosa), giant foxtail (Setaria faberii), goosegrass (Eleusine indica), johnsongrass (Sorghum halepense), kochia (Kochia scoparia), lambsquarters (Chenopodium album), morningglory (Ipomoea coccinea), nightshade (eastern black nightshade, Solanum ptycanthum), yellow nutsedge (Cyperus esculentus), pigweed (Amaranthus retroflexus), ragweed (common ragweed, Ambrosia elatior), Russian thistle (Salsola kali), soybean (Glycine max), sunflower (common oilseed sunflower, Helianthus annuus) and velvetleaf (Abutilon theophrasti) were planted into a blend of loam soil and sand and treated preemergence with test compounds formulated in a non-phytotoxic solvent mixture which included a surfactant.
# (§2) At the same time, plants selected from these crop and weed species and also winter barley (Hordeum vulgare), canarygrass (Phalaris minor), chickweed (Stellaria media) and windgrass (Apera spica-venti) were planted in pots containing Redi-Earth® planting medium (Scotts Company, 14111 Scottslawn Road, Marysville, Ohio 43041) comprising spaghnum peat moss, vermiculite, wetting agent and starter nutrients and treated with postemergence applications of some of the test chemicals formulated in the same manner. Plants ranged in height from 2 to 18 cm (1- to 4-leaf stage) for postemergence treatments.
# (§3) Treated plants and controls were maintained in a greenhouse for 13 to 15 days, after which time all treated plants were visually evaluated and compared to controls. Plant response ratings, summarized in Table B, are based on a scale of 0 to 100 where 0 is no effect and 100 is complete control. A dash (-) response means no test result.
# [2] = tested on: Italian ryegrass (Lolium multiflorum)
# Excerpt: as §1, §2, §3
# corn (Zea mays) = tested on: corn (Zea mays)
# Excerpt: as §1, §2, §3
# wild oat (Avena fatua) = tested on: wild oat (Avena fatua)
# Excerpt: as §1, §2, §3
# [3] = tested on: blackgrass (Alopecurus myosuroides)
# Excerpt: as §1, §2, §3
# [4] = tested on: bermudagrass (Cynodon dactylon)
# Excerpt: as §1, §2, §3
# [5] = tested on: large crabgrass (Digitaria sanguinalis)
# Excerpt: as §1, §2, §3
# [6] = tested on: velvetleaf (Abutilon theophrasti)
# Excerpt: as §1, §2, §3
# kochia (Kochia scoparia) = tested on: kochia (Kochia scoparia)
# Excerpt: as §1, §2, §3
# [7] = tested on: lambsquarters (Chenopodium album)
# Excerpt: as §1, §2, §3
# soybean (Glycine max) = tested on: soybean (Glycine max)
# Excerpt: as §1, §2, §3
# [8] = tested on: cocklebur (Xanthium strumarium)
# Excerpt: as §1, §2, §3
# [9] = tested on: downy bromegrass (Bromus tectorum)
# Excerpt: as §1, §2, §3
# [10] = tested on: Surinam grass (Brachiaria decumbens)
# Excerpt: as §1, §2, §3
# [11] = tested on: yellow nutsedge (Cyperus esculentus)
# Excerpt: as §1, §2, §3
# [12] = tested on: pigweed (Amaranthus retroflexus)
# Excerpt: as §1, §2, §3
# [13] = tested on: green foxtail (Setaria viridis)
# Excerpt: as §1, §2, §3
# [14] = 250 g ai/ha, Preemergence, 0 to 100 scale
# [15] = Postemergence, 31 g ai/ha, scale 0 to 100 (0 no effect, 100 complete control)
# [16] = Postemergence, 62 g ai/ha, scale 0 (no effect) to 100 (complete control), 13 to 15 days
# [17] = Postemergence, 125 g ai/ha, visual rating after 13 to 15 days, scale 0 (no effect) to 100 (complete control)
# [18] = Postemergence, 250 g ai/ha, scale 0 to 100
# [19] = Preemergence, 31 g ai/ha, scale 0 to 100 (0 no effect, 100 complete control)
# [20] = Preemergence, 62 g ai/ha, scale 0 to 100, 0 no effect, 100 complete control
# [21] = Preemergence, 125 g ai/ha, 0 to 100 scale
substance,measurement,setting,value
5-[(2-hydroxy-6-oxo-1-cyclohexen-1-yl)carbonyl]-3-(2-methoxyethyl)-2-(3-thienyl)-4(3H)-pyrimidinone [Compound 97],"Plant response rating, Ragweed",[1]; [14],100
same,"Plant response rating, Ragweed",[1]; [15],75
same,"Plant response rating, Ragweed",[1]; [16],80
same,"Plant response rating, Ragweed",[1]; [17],90
same,Ragweed plant response rating,[1]; [18],98
same,"Plant response rating, Ragweed",[1]; [19],98
same,"Plant response rating, Ragweed",[1]; [20],100
same,Ragweed plant response rating,[1]; [21],100
same,"Plant response rating, Ryegrass, Italian",[2]; [14],0
same,"Plant response rating, Ryegrass, Italian",[2]; [15],0
same,"Plant response rating, Ryegrass, Italian",[2]; [16],0
same,"Plant response rating, Ryegrass, Italian",[2]; [17],0
same,"Ryegrass, Italian plant response rating",[2]; [18],20
same,"Plant response rating, Ryegrass, Italian",[2]; [19],0
same,"Plant response rating, Ryegrass, Italian",[2]; [20],0
same,"Ryegrass, Italian plant response rating",[2]; [21],0
same,"Plant response rating, Corn",corn (Zea mays); [14],0
same,"Plant response rating, Corn",corn (Zea mays); [15],15
same,"Plant response rating, Corn",corn (Zea mays); [16],15
same,"Plant response rating, Corn",corn (Zea mays); [17],45
same,Corn plant response rating,corn (Zea mays); [18],65
same,"Plant response rating, Corn",corn (Zea mays); [19],0
same,"Plant response rating, Corn",corn (Zea mays); [20],0
same,Corn plant response rating,corn (Zea mays); [21],0
same,"Plant response rating, Oat, Wild",wild oat (Avena fatua); [14],10
same,"Plant response rating, Oat, Wild",wild oat (Avena fatua); [15],0
same,"Plant response rating, Oat, Wild",wild oat (Avena fatua); [16],5
same,"Plant response rating, Oat, Wild",wild oat (Avena fatua); [17],20
same,"Oat, Wild plant response rating",wild oat (Avena fatua); [18],40
same,"Plant response rating, Oat, Wild",wild oat (Avena fatua); [19],0
same,"Plant response rating, Oat, Wild",wild oat (Avena fatua); [20],0
same,"Oat, Wild plant response rating",wild oat (Avena fatua); [21],0
same,"Plant response rating, Blackgrass",[3]; [14],20
same,"Plant response rating, Blackgrass",[3]; [15],0
same,"Plant response rating, Blackgrass",[3]; [16],0
same,"Plant response rating, Blackgrass",[3]; [17],50
same,Blackgrass plant response rating,[3]; [18],50
same,"Plant response rating, Blackgrass",[3]; [19],0
same,"Plant response rating, Blackgrass",[3]; [20],0
same,Blackgrass plant response rating,[3]; [21],0
same,"Plant response rating, Bermudagrass",[4]; [14],100
same,"Plant response rating, Bermudagrass",[4]; [15],70
same,"Plant response rating, Bermudagrass",[4]; [16],75
same,"Plant response rating, Bermudagrass","[4]; Postemergence, 125 g ai/ha, scale 0 to 100 (0 no effect, 100 complete control), 13 to 15 days",90
same,Bermudagrass plant response rating,[4]; [18],95
same,"Plant response rating, Bermudagrass",[4]; [19],45
same,"Plant response rating, Bermudagrass",[4]; [20],80
same,Bermudagrass plant response rating,[4]; [21],100
same,"Plant response rating, Crabgrass, Large",[5]; [14],95
same,"Plant response rating, Crabgrass, Large",[5]; [15],65
same,"Plant response rating, Crabgrass, Large",[5]; [16],70
same,"Plant response rating, Crabgrass, Large",[5]; [17],75
same,"Crabgrass, Large plant response rating",[5]; [18],80
same,"Plant response rating, Crabgrass, Large",[5]; [19],0
same,"Plant response rating, Crabgrass, Large",[5]; [20],0
same,"Crabgrass, Large plant response rating",[5]; [21],70
same,"Plant response rating, Velvetleaf",[6]; [14],100
same,"Plant response rating, Velvetleaf",[6]; [15],70
same,"Plant response rating, Velvetleaf",[6]; [16],70
same,"Plant response rating, Velvetleaf",[6]; [17],75
same,Velvetleaf plant response rating,[6]; [18],85
same,"Plant response rating, Velvetleaf",[6]; [19],55
same,"Plant response rating, Velvetleaf",[6]; [20],100
same,Velvetleaf plant response rating,[6]; [21],100
same,"Plant response rating, Kochia",kochia (Kochia scoparia); [14],100
same,"Plant response rating, Kochia",kochia (Kochia scoparia); [15],10
same,"Plant response rating, Kochia",kochia (Kochia scoparia); [16],15
same,"Plant response rating, Kochia",kochia (Kochia scoparia); [17],15
same,Kochia plant response rating,kochia (Kochia scoparia); [18],20
same,"Plant response rating, Kochia",kochia (Kochia scoparia); [19],0
same,"Plant response rating, Kochia",kochia (Kochia scoparia); [20],50
same,Kochia plant response rating,kochia (Kochia scoparia); [21],100
same,"Plant response rating, Lambsquarters",[7]; [14],100
same,"Plant response rating, Lambsquarters",[7]; [15],80
same,"Plant response rating, Lambsquarters",[7]; [16],80
same,"Plant response rating, Lambsquarters",[7]; [17],90
same,Lambsquarters plant response rating,[7]; [18],95
same,"Plant response rating, Lambsquarters",[7]; [19],100
same,"Plant response rating, Lambsquarters",[7]; [20],100
same,Lambsquarters plant response rating,[7]; [21],100
same,"Plant response rating, Soybean",soybean (Glycine max); [14],75
same,"Plant response rating, Soybean",soybean (Glycine max); [15],95
same,"Plant response rating, Soybean",soybean (Glycine max); [16],95
same,"Plant response rating, Soybean",soybean (Glycine max); [17],95
same,Soybean plant response rating,soybean (Glycine max); [18],98
same,"Plant response rating, Soybean",soybean (Glycine max); [19],10
same,"Plant response rating, Soybean",soybean (Glycine max); [20],60
same,Soybean plant response rating,soybean (Glycine max); [21],65
same,"Plant response rating, Cocklebur",[8]; [14],98
same,"Plant response rating, Cocklebur",[8]; [15],70
same,"Plant response rating, Cocklebur",[8]; [16],90
same,"Plant response rating, Cocklebur",[8]; [17],95
same,Cocklebur plant response rating,[8]; [18],98
same,"Plant response rating, Cocklebur",[8]; [19],0
same,"Plant response rating, Cocklebur",[8]; [20],15
same,Cocklebur plant response rating,[8]; [21],65
same,"Plant response rating, Bromegrass, Downy",[9]; [14],0
same,"Plant response rating, Bromegrass, Downy",[9]; [15],0
same,"Plant response rating, Bromegrass, Downy",[9]; [16],0
same,"Plant response rating, Bromegrass, Downy",[9]; [17],10
same,"Bromegrass, Downy plant response rating",[9]; [18],20
same,"Plant response rating, Bromegrass, Downy",[9]; [19],0
same,"Plant response rating, Bromegrass, Downy",[9]; [20],0
same,"Bromegrass, Downy plant response rating",[9]; [21],0
same,"Plant response rating, Surinam Grass",[10]; [14],80
same,"Plant response rating, Surinam Grass",[10]; [15],60
same,"Plant response rating, Surinam Grass",[10]; [16],70
same,"Plant response rating, Surinam Grass",[10]; [17],70
same,Surinam Grass plant response rating,[10]; [18],80
same,"Plant response rating, Surinam Grass",[10]; [19],0
same,"Plant response rating, Surinam Grass",[10]; [20],10
same,Surinam Grass plant response rating,[10]; [21],15
same,"Plant response rating, Nutsedge, Yellow",[11]; [14],75
same,"Plant response rating, Nutsedge, Yellow",[11]; [15],15
same,"Plant response rating, Nutsedge, Yellow",[11]; [16],55
same,"Plant response rating, Nutsedge, Yellow",[11]; [17],60
same,"Nutsedge, Yellow plant response rating",[11]; [18],75
same,"Plant response rating, Nutsedge, Yellow",[11]; [19],0
same,"Plant response rating, Nutsedge, Yellow",[11]; [20],0
same,"Nutsedge, Yellow plant response rating",[11]; [21],55
same,"Plant response rating, Pigweed",[12]; [14],100
same,"Plant response rating, Pigweed",[12]; [15],85
same,"Plant response rating, Pigweed",[12]; [16],85
same,"Plant response rating, Pigweed",[12]; [17],95
same,Pigweed plant response rating,[12]; [18],100
same,"Plant response rating, Pigweed",[12]; [19],100
same,"Plant response rating, Pigweed",[12]; [20],100
same,Pigweed plant response rating,[12]; [21],100
same,"Plant response rating, Foxtail, Green",[13]; [14],30
same,"Plant response rating, Foxtail, Green",[13]; [15],10
same,"Plant response rating, Foxtail, Green",[13]; [16],25
same,"Plant response rating, Foxtail, Green",[13]; [17],70
same,"Foxtail, Green plant response rating",[13]; [18],70
same,"Plant response rating, Foxtail, Green",[13]; [19],0
same,"Plant response rating, Foxtail, Green",[13]; [20],0
same,"Foxtail, Green plant response rating",[13]; [21],0

# Reference: US8952024B2, “Herbicidal pyrimidone derivatives” (E I du Pont de Nemours and Company, priority 2009, dated 2015)
